Key:
Assay in all cases: greenhouse pre-emergence herbicidal test
Assay type in all cases: in vivo
Setaria faberi = conditions: scale 0 to 100
Excerpt: (§1) The culture containers used were plastic flowerpots containing loamy sand with approximately 3.0% of humus as the substrate. The seeds of the test plants were sown separately for each species.
(§2) For the pre-emergence treatment, the active ingredients, which had been suspended or emulsified in water, were applied directly after sowing by means of finely distributing nozzles. The containers were irrigated gently to promote germination and growth and subsequently covered with transparent plastic hoods until the plants had rooted. This cover caused uniform germination of the test plants, unless this had been impaired by the active ingredients. For the post-emergence treatment, the test plants were first grown to a height of 3 to 15 cm, depending on the plant habit, and only then treated with the active ingredients which had been suspended or emulsified in water. For this purpose, the test plants were either sown directly and grown in the same containers, or they were first grown separately as seedlings and transplanted into the test containers a few days prior to treatment.
(§3) Depending on the species, the plants were kept at 10-25° C. or 20-35° C., respectively.
(§4) The test period extended over 2 to 4 weeks. During this time, the plants were tended, and their response to the individual treatments was evaluated.
(§5) Evaluation was carried out using a scale from 0 to 100. 100 means no emergence of the plants, or complete destruction of at least the aerial moieties, and 0 means no damage, or normal course of growth. A moderate herbicidal activity is given at values of at least 60, a good herbicidal activity is given at values of at least 70, and a very good herbicidal activity is given at values of at least 85.
(§6) The plants used in the greenhouse experiments were of the following species: […]

Echinochloa crus-galli = conditions: scale 0 to 100
Excerpt: as §1, §2, §3, §4, §5, §6

Alopecurus myosuroides = conditions: scale 0 to 100
Excerpt: as §1, §2, §3, §4, §5, §6

Digitaria sanguinalis = conditions: scale 0 to 100
Excerpt: as §1, §2, §3, §4, §5, §6

Abutilon theophrasti = conditions: scale 0 to 100
Excerpt: as §1, §2, §3, §4, §5, §6

Amaranthus retroflexus = conditions: scale 0 to 100
Excerpt: as §1, §2, §3, §4, §5, §6

Apera spica-venti = conditions: 31 g/ha, scale 0 to 100
Excerpt: as §1, §2, §3, §4, §5, §6

`COc1c(Cl)cc(F)c(F)c1Nc1nc(N)nc(C(F)CC(C)C)n1` (racemic) [Example 12] was tested. Which herbicidal activity (Setaria faberi; pre-emergence, 250 g/ha) did it give?
The herbicidal activity was 100%.

And the herbicidal activity (Echinochloa crus-galli; pre-emergence, 250 g/ha)?
Its herbicidal activity is 100%.

What about the herbicidal activity (Alopecurus myosuroides; pre-emergence, 250 g/ha) of the same compound?
Its herbicidal activity is 100%.

Which herbicidal activity (Digitaria sanguinalis; pre-emergence, 62,5 g/ha) does the source give for `COc1c(Cl)ccc(F)c1Nc1nc(N)nc(C(C)(C)F)n1` [Example 2] here?
The herbicidal activity was 100%.

And the herbicidal activity (Abutilon theophrasti; pre-emergence, 62,5 g/ha)?
The herbicidal activity was 100%.

And the herbicidal activity (Echinochloa crus-galli; pre-emergence, 62,5 g/ha)?
Its herbicidal activity is 100%.

Which results are given for `COc1c(Cl)cc(C)c(F)c1Nc1nc(N)nc(C(C)(C)F)n1` [Example 3]?
herbicidal activity (Digitaria sanguinalis; pre-emergence, 62,5 g/ha): 100%; herbicidal activity (Abutilon theophrasti; pre-emergence, 62,5 g/ha): 100%; herbicidal activity (Echinochloa crus-galli; pre-emergence, 62,5 g/ha): 100%

Which results are given for `COc1c(Br)ccc(F)c1Nc1nc(N)nc(C(C)(C)F)n1` [Example 4, N4-(3-bromo-6-fluoro-2-methoxy-phenyl)-6-(1-fluoro-1-methyl-ethyl)-1,3,5-triazine-2,4-diamine]?
herbicidal activity (Digitaria sanguinalis; pre-emergence, 62,5 g/ha): 100%; herbicidal activity (Abutilon theophrasti; pre-emergence, 62,5 g/ha): 100%; herbicidal activity (Echinochloa crus-galli; pre-emergence, 62,5 g/ha): 100%

Which herbicidal activity (Digitaria sanguinalis; pre-emergence, 250 g/ha) does the source give for `COc1c(Br)ccc(F)c1Nc1nc(N)nc(C2(F)CCCCC2)n1` [Example 5] here?
Its herbicidal activity is 100%.

And the herbicidal activity (Abutilon theophrasti; pre-emergence, 250 g/ha)?
The herbicidal activity was 90%.

What about the herbicidal activity (Echinochloa crus-galli; pre-emergence, 250 g/ha) of the same compound?
Its herbicidal activity is 85%.

What does the source list for `COc1c(Cl)cc(F)c(F)c1Nc1nc(N)nc(C2(F)CCCC2)n1` [Example 11]?
herbicidal activity (Setaria faberi; pre-emergence, 250 g/ha): 100%; herbicidal activity (Echinochloa crus-galli; pre-emergence, 250 g/ha): 100%; herbicidal activity (Alopecurus myosuroides; pre-emergence, 250 g/ha): 100%

Which results are given for `CC(C)(F)c1nc(N)nc(Nc2c(F)ccc(Br)c2OC2CC2)n1` [Example 13]?
herbicidal activity (Setaria faberi; pre-emergence, 62,5 g/ha): 100%; herbicidal activity (Echinochloa crus-galli; pre-emergence, 62,5 g/ha): 100%; herbicidal activity (Alopecurus myosuroides; pre-emergence, 62,5 g/ha): 100%

For `Nc1nc(Nc2c(F)ccc(Br)c2OC2CC2)nc(C2(F)CCCC2)n1` [Example 14], which herbicidal activity (Setaria faberi; pre-emergence, 125 g/ha) is on record?
Its herbicidal activity is 100%.

And the herbicidal activity (Echinochloa crus-galli; pre-emergence, 125 g/ha)?
Its herbicidal activity is 98%.

What about the herbicidal activity (Alopecurus myosuroides; pre-emergence, 125 g/ha) of the same compound?
The herbicidal activity was 98%.

With `CC#CCOc1c(Br)cc(F)c(F)c1Nc1nc(N)nc(C(C)(C)F)n1` [Example 15] as the compound, how does the herbicidal activity (Setaria faberi; pre-emergence, 125 g/ha) read?
The herbicidal activity was 100%.

And the herbicidal activity (Echinochloa crus-galli; pre-emergence, 125 g/ha)?
Its herbicidal activity is 100%.

What about the herbicidal activity (Alopecurus myosuroides; pre-emergence, 125 g/ha) of the same compound?
Its herbicidal activity is 100%.

What does the source list for `CC(C)(F)c1nc(N)nc(Nc2c(F)c(F)cc(Cl)c2OCC#CC2CC2)n1` [Example 30]?
herbicidal activity (Setaria faberi; pre-emergence, 31 g/ha): 100%; herbicidal activity (Abutilon theophrasti; pre-emergence, 31 g/ha): 100%; herbicidal activity (Alopecurus myosuroides; pre-emergence, 31 g/ha): 100%

Which results are given for `COc1c(Br)cc(F)c(F)c1Nc1nc(N)nc(C(C)(F)CCl)n1` (stereo not drawn) [Example 33]?
herbicidal activity (Amaranthus retroflexus; pre-emergence, 62,5 g/ha): 100%; herbicidal activity (Abutilon theophrasti; pre-emergence, 62,5 g/ha): 100%; herbicidal activity (Echinochloa crus-galli; pre-emergence, 62,5 g/ha): 98%

How did the herbicidal activity (Amaranthus retroflexus; pre-emergence, 62,5 g/ha) turn out when `COc1c(Cl)cc(F)c(F)c1Nc1nc(N)nc(C(C)(F)CCl)n1` (stereo not drawn) [Example 34] was run?
Its herbicidal activity is 100%.

What about the herbicidal activity (Abutilon theophrasti; pre-emergence, 62,5 g/ha) of the same compound?
The herbicidal activity was 100%.

And the herbicidal activity (Echinochloa crus-galli; pre-emergence, 62,5 g/ha)?
Its herbicidal activity is 100%.

What does the source list for `COc1c(Cl)cc(F)c(F)c1Nc1nc(N)nc(C2(F)CC2)n1` [Example 35]?
herbicidal activity (Amaranthus retroflexus; pre-emergence, 62,5 g/ha): 100%; herbicidal activity (Abutilon theophrasti; pre-emergence, 62,5 g/ha): 100%; herbicidal activity (Echinochloa crus-galli; pre-emergence, 62,5 g/ha): 100%

With `COc1c(Cl)cc(F)c(F)c1Nc1nc(N)nc(C(C)(C)OC)n1` [Example 36] as the compound, how does the herbicidal activity (Amaranthus retroflexus; pre-emergence, 62,5 g/ha) read?
Its herbicidal activity is 100%.

What about the herbicidal activity (Abutilon theophrasti; pre-emergence, 62,5 g/ha) of the same compound?
Its herbicidal activity is 100%.

And the herbicidal activity (Echinochloa crus-galli; pre-emergence, 62,5 g/ha)?
Its herbicidal activity is 100%.

Which herbicidal activity (Amaranthus retroflexus; pre-emergence, 62,5 g/ha) does the source give for `COc1c(Cl)cc(F)c(F)c1Nc1nc(N)nc(C(C)(C)Cl)n1` [Example 37] here?
Its herbicidal activity is 100%.

And the herbicidal activity (Abutilon theophrasti; pre-emergence, 62,5 g/ha)?
Its herbicidal activity is 98%.

And the herbicidal activity (Echinochloa crus-galli; pre-emergence, 62,5 g/ha)?
Its herbicidal activity is 100%.

Which herbicidal activity (Amaranthus retroflexus; pre-emergence, 62,5 g/ha) does the source give for `COc1c(Cl)cc(F)c(F)c1Nc1nc(N)nc(C(C)(F)F)n1` [Example 49, N4-(5-chloro-2,3-difluoro-6-methoxy-phenyl)-6-(1,1-difluoroethyl)-1,3,5-triazine-2,4-diamine] here?
Its herbicidal activity is 100%.

And the herbicidal activity (Abutilon theophrasti; pre-emergence, 62,5 g/ha)?
The herbicidal activity was 100%.

What about the herbicidal activity (Echinochloa crus-galli; pre-emergence, 62,5 g/ha) of the same compound?
Its herbicidal activity is 100%.

Which herbicidal activity (Setaria faberi; pre-emergence, 62,5 g/ha) does the source give for `CC=C(Cl)COc1c(Cl)cc(F)c(F)c1Nc1nc(N)nc(C(C)(C)F)n1` [Example 53] here?
The herbicidal activity was 100%.

What about the herbicidal activity (Echinochloa crus-galli; pre-emergence, 62,5 g/ha) of the same compound?
Its herbicidal activity is 98%.

And the herbicidal activity (Alopecurus myosuroides; pre-emergence, 62,5 g/ha)?
Its herbicidal activity is 90%.

For `COc1c(Br)cc(F)c(F)c1Nc1nc(N)nc(C2(F)CC2)n1` [Example 55], which herbicidal activity (Amaranthus retroflexus; pre-emergence, 62,5 g/ha) is on record?
Its herbicidal activity is 100%.

And the herbicidal activity (Abutilon theophrasti; pre-emergence, 62,5 g/ha)?
The herbicidal activity was 100%.

What about the herbicidal activity (Echinochloa crus-galli; pre-emergence, 62,5 g/ha) of the same compound?
Its herbicidal activity is 100%.

How did the herbicidal activity (Amaranthus retroflexus; pre-emergence, 31 g/ha) turn out when `COc1c(Cl)cc(Cl)c(F)c1Nc1nc(N)nc(C2(F)CCCC2)n1` [Example 60] was run?
Its herbicidal activity is 100%.

What about the herbicidal activity (Setaria faberi; pre-emergence, 31 g/ha) of the same compound?
Its herbicidal activity is 98%.

What about the herbicidal activity (Apera spica-venti) of the same compound?
The herbicidal activity was 95%.

For `CC#CCOc1c(Cl)cc(Cl)c(F)c1Nc1nc(N)nc(C(C)(C)F)n1` [Example 61], which herbicidal activity (Amaranthus retroflexus; pre-emergence, 31 g/ha) is on record?
The herbicidal activity was 100%.

What about the herbicidal activity (Abutilon theophrasti; pre-emergence, 31 g/ha) of the same compound?
Its herbicidal activity is 100%.

And the herbicidal activity (Echinochloa crus-galli; pre-emergence, 31 g/ha)?
Its herbicidal activity is 100%.
